Assay results as given in patent publication US20170051034A1 (Novo Nordisk A/S, priority 2010, published 2017).
Numbered stars: 1 amine (or outer) side, 2 acyl side, 3 side chain; on linkers, the order of the positions; unused ones are H or OH. Side chains are listed from the residue outwards. Peptide text beside a SMILES is read from it. * marks the point of attachment. C20 diacid = O=C(O)CCCCCCCCCCCCCCCCCCC(=O)*; C18 diacid = O=C(O)CCCCCCCCCCCCCCCCC(=O)*; γGlu = O=C(O)[C@H](CCC(=O)[*:2])N[*:1]; AEEA = NCCOCCOCC(=O)O

Target: glucagon receptor (Homo sapiens, UniProt P47871)
Test: cell-based
Protocol: The cells (14000 per well) were incubated (37° C., 5% CO2) overnight in 384-well plates. Next day the cells were loaded with a calcium responsive dye that only distributed into the cytoplasm. Probenecid, an inhibitor of the organic anion transporter, was added to prevent the dye from leaving the cell. A PDE inhibitor was added to prevent formatted cAMP from being degraded. […] End point data were collected after 6 minutes. An increase in intracellular cAMP was proportional to an increased in calcium concentrations in the cytoplasm. […] EC50-values were calculated in Prism5.

Chain of glucagon receptor (P47871 26-477): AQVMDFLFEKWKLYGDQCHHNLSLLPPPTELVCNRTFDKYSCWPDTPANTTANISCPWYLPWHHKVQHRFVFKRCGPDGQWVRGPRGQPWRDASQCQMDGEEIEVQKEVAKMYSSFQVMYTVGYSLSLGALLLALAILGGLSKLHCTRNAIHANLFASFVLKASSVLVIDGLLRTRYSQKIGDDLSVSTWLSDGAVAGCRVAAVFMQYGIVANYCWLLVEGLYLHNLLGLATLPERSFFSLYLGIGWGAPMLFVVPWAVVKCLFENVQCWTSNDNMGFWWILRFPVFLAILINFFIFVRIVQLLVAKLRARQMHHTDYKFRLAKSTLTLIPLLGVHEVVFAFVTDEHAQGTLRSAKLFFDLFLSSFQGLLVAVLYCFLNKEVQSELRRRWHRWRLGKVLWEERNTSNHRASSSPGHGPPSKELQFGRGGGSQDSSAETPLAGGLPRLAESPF

SMILES	EC50
CC(C)C[C@H](NC(=O)[C@H](CC(C)C)NC(=O)[C@H](Cc1c[nH]c2ccccc12)NC(=O)[C@H](CCC(N)=O)NC(=O)[C@@H](NC(=O)[C@H](Cc1ccccc1)NC(=O)[C@H](CCC(=O)O)NC(=O)[C@H](CCC(N)=O)NC(=O)[C@H](C)NC(=O)[C@H](CCCCN)NC(=O)[C@H](CCCCN)NC(=O)[C@H](CO)NC(=O)[C@H](CC(=O)O)NC(=O)[C@H](CC(C)C)NC(=O)[C@H](Cc1ccc(O)cc1)NC(=O)[C@H](CCCCN)NC(=O)[C@H](CO)NC(=O)[C@H](Cc1ccc(O)cc1)NC(=O)[C@H](CC(=O)O)NC(=O)[C@H](CO)NC(=O)[C@@H](NC(=O)[C@H](Cc1ccccc1)NC(=O)[C@@H](NC(=O)CNC(=O)[C@H](CCC(N)=O)NC(=O)[C@H](CO)NC(=O)[C@@H](N)Cc1c[nH]cn1)[C@@H](C)O)[C@@H](C)O)C(C)C)C(=O)N[C@@H](CC(N)=O)C(=O)N[C@@H](CCCCNC(=O)COCCOCCNC(=O)COCCOCCNC(=O)CC[C@H](NC(=O)CCCCCCCCCCCCCCCCC(=O)O)C(=O)O)C(=O)O [Example 68, N^ε29-[2-[2-[2-[[2-[2-[2-[[(4S)-4-carboxy-4-(17-carboxyheptadecanoylamino)butanoyl]amino]ethoxy]ethoxy]acetyl]amino]ethoxy]ethoxy]acetyl]-[Lys^17,Lys^18,Glu^21,Leu^27,Lys^29]-Glucagon] (H-HSQGTFTSDYSKYLDSKKAQEFVQWLLNK([AEEA-AEEA-γGlu-C18 diacid])-OH)	0.053 nM
CC(C)C[C@H](NC(=O)[C@H](Cc1ccc(O)cc1)NC(=O)[C@H](CCCCN)NC(=O)[C@H](CO)NC(=O)[C@H](Cc1ccc(O)cc1)NC(=O)[C@H](CC(=O)O)NC(=O)[C@H](CO)NC(=O)[C@@H](NC(=O)[C@H](Cc1ccccc1)NC(=O)[C@@H](NC(=O)CNC(=O)[C@H](CCC(N)=O)NC(=O)[C@H](CO)NC(=O)[C@@H](N)Cc1c[nH]cn1)[C@@H](C)O)[C@@H](C)O)C(=O)N[C@@H](CC(=O)O)C(=O)N[C@@H](CO)C(=O)N[C@@H](CCCCN)C(=O)N[C@@H](CCCCN)C(=O)N[C@@H](C)C(=O)N[C@@H](CCC(N)=O)C(=O)N[C@@H](CCC(=O)O)C(=O)N[C@@H](Cc1ccccc1)C(=O)N[C@H](C(=O)N[C@@H](CCCCNC(=O)COCCOCCNC(=O)COCCOCCNC(=O)CC[C@H](NC(=O)CCCCCCCCCCCCCCCCCCC(=O)O)C(=O)O)C(=O)N[C@@H](Cc1c[nH]c2ccccc12)C(=O)N[C@@H](CC(C)C)C(=O)N[C@@H](CC(C)C)C(=O)N[C@@H](CC(N)=O)C(=O)N[C@H](C(=O)O)[C@@H](C)O)C(C)C [Example 66, N^ε24-[2-[2-[2-[[2-[2-[2-[[(4S)-4-carboxy-4-(19-carboxynonadecanoylamino)butanoyl]amino]ethoxy]ethoxy]acetyl]amino]ethoxy]ethoxy]acetyl]-[Lys^17,Lys^18,Glu^21,Lys^24,Leu^27]-Glucagon] (H-HSQGTFTSDYSKYLDSKKAQEFVK([AEEA-AEEA-γGlu-C20 diacid])WLLNT-OH)	6.35 nM
